{"source": "patent US20230022117A1", "about": "“RNAi-BASED TARGETING COMPOUNDS AND USES THEREOF TO PREVENT ACQUIRED HEARING LOSS” (MUSC FOUNDATION FOR RESEARCH DEVELOPMENT, priority 2019, published 2023)", "format_in_all_cases": "in vivo, mouse", "key": {"CaMKKβ": {"tested_on": "CaMKKβ", "test": "Silencing efficiency: CaMKKβ immunolabeling in OHCs after siRNA delivery", "details": "basal turn, 22-32 kHz", "excerpt": "(§1) siCaMKKβ (Thermo Fisher, #n437808) (sense: […] SEQ ID NO: 1; antisense […] SEQ ID NO: 2) or siControl (Thermo Fisher, #4390844) was locally delivered via intra-tympanic application onto the RWM as previously described (Oishi et al., 2013; Hill et al., 2016) or via PSC to the endolymph based on reports (Guo, 2018 #3975; Tao, 2018 #3973). Briefly, after anesthesia, a retroauricular incision was made to approach the temporal bone. For intra-tympanic delivery onto the RWM, the otic bulla was identified ventral to the facial nerve and a shallow hole was made in the thin part of the otic bulla with a 30-G needle and enlarged with forceps to a diameter of 2 mm in order to visualize the round window. […]\nImmunohistochemistry is well accepted as a semi-quantitative methodology when used with careful consideration of the utility and semi-quantitative nature of these assays (Taylor, 2006 #3978; Walker, 2006 #3979). The specificity of antibodies must be first detected by Western blot analysis. Antibodies showing only a single band with the correct molecular weight were used for immunolabeling on surface preparations and quantification of signaling in OHCs. […] The grayscale value was determined in only the hair cells to quantify the change in fluorescence intensity. This procedure provided quantitative measurements that are not confounded by protein expression in other cell types of the cochlea. […]"}, "CBA/J mice [1]": {"tested_on": "CBA/J mice", "test": "Noise-induced hearing loss (101-dB broad band noise): ABR threshold shifts", "details": "pretreatment via intra-tympanic delivery on RWM; 8, 16, and 32 kHz; 14 d after noise exposure; vs siControl", "procedure": "(§2) Unrestrained CBA/J male mice at the age of 12 weeks (one mouse per stainless steel wire cage, approximately 9 cm^3) were exposed to broad band noise from to 2-20 kHz at 101 dB sound pressure level (SPL) for 2 h to induce permanent threshold shifts with loss of synaptic ribbons and OHCs, but not IHCs, or 106 dB to induce permanent threshold shifts with losses of ribbons, OHCs, and IHCs by 14 d after the noise exposure. […] Audio CD sound files were created and equalized with audio editing software (Audition 3; Adobe Systems, Inc.). The background sound intensity of the environment surrounding the cages was 65 dB as measured with a sound level meter (model 1200; Quest Technologies). Sound levels for noise exposure are calibrated with a sound level meter at multiple locations within the sound chamber to ensure the uniformity of the sound field before and after exposure. Control mice were kept in silence (without use of the loudspeaker) within the same chamber for 2 h. […]\nABRs were measured in the left ears of anaesthetized mice before and two weeks after noise exposure. […] Body temperature was monitored and maintained near 37° C. with a heating pad. […] ABRs were measured at 8, 16, and 32 kHz. […] Thresholds were determined for each frequency by reducing the intensity in 10-dB increments and then in 5-dB steps near threshold until no organized responses were detected. […]"}, "CBA/J mice [2]": {"tested_on": "CBA/J mice", "test": "Noise-induced hearing loss (101-dB noise): DPOAE thresholds", "details": "pretreatment via intra-tympanic delivery on RWM; 12-40 kHz; 14 d after noise exposure"}, "outer hair cells (OHCs) [3]": {"tested_on": "outer hair cells (OHCs)", "test": "Noise-induced OHC loss: hair cell counts along the cochlear duct", "details": "pretreatment via intra-tympanic delivery on RWM; 101-dB noise; 14 d after exposure", "procedure": "as §2\n(§3) Images from the apex through the base of the DAB-stained preparations were captured using a 20× lens on the Zeiss microscope. The lengths of the cochlear epithelia were measured and recorded in millimeters. OHCs were counted from the apex to the base along the entire length of the mouse cochlear epithelium."}, "IHC synapses": {"tested_on": "IHC synapses", "test": "Noise-induced loss of IHC synapses: CtBP2/GluA2 counts", "details": "pretreatment via intra-tympanic delivery onto the RWM; 101-dB noise; 14 d; loss at 22 and 32 kHz", "procedure": "as §2, with “exposure.” for “exposure. Control mice were kept in silence (without use of the loudspeaker) within the same chamber for 2 h.”\nA procedure as previously described by Hill et al., 2016 was followed. Immunofluorescence of CtBP2 on surface preparations was quantified from original confocal images, each taken with a 63×-magnification lens under identical Z-stack conditions in […] intervals and equal parameter settings for laser gains and PMT gains. […] The number of synaptic ribbons was counted using ImageJ software (National Institutes of Health, Bethesda, Md.). […]"}, "CBA/J mice [4]": {"tested_on": "CBA/J mice", "test": "Kanamycin-plus-furosemide-induced hearing loss: ABR threshold shifts", "details": "8, 16, and 32 kHz; for KM-furosemide-induced auditory threshold shifts: 14 d after the injection; for hearing loss / auditory threshold shifts (in words): single treatment, KM 800 mg/kg SQ and/or Fu 200 mg/kg IP, 14 d after the injections"}, "CBA/J mice [5]": {"tested_on": "CBA/J mice", "test": "Kanamycin-furosemide-induced damage to OHC function: DPOAE", "details": "siRNA pretreatment via PSC; 14 d after the injection"}, "outer hair cells (OHCs) [6]": {"tested_on": "outer hair cells (OHCs)", "test": "Kanamycin-furosemide-induced OHC loss: hair cell counts", "details": "siRNA pretreatment via PSC; 14 d after the lesions", "excerpt": "as §1, with “window. A customized sterile micro medical tube was inserted into the hole just above the round window niche (RWN) to slowly deliver 10 μL (0.6 μg) of siCaMKKβ or siControl. For PSC delivery, the stemocleidomastoid muscle was separated to expose the PSC. A small hole was made with the tip of a 30-G needle on the PSC and left open for about 1 min (there was no obvious endolymph leakage).” for “window.”\nas §3, with “epithelium. […]” for “epithelium.”"}, "[7]": {"tested_on": "OHC mechanotransduction channels", "test": "FM1-43 uptake into OHCs (mechanotransduction channel function)", "details": "siRNA delivered through the PSC 48 h before application of FM1-43", "procedure": "(§4) Since aminoglycoside antibiotics are known to enter outer hair cells (OHCs) mainly through mechanotransduction channels (MTCs), to address if protective effects of pretreatment with siCaMKKβ is due to blockade of kanamycin and/or furosemide entering OHCs, we assessed OHC MTCs using FM1-43FX, based on prior literature (Meyers et al., 2003; Taylor et al., 2008; Nakanishi et al., 2018). siCaMKKβ was delivered through the posterior semicircular canal (PSC) 48 h before application of FM1-43 to measure MTC function in OHCs. […] Scale bar=10 μm.\nas §4, with “with siAMPKα1” for “with siCaMKKβ”, “2018). siAMPKα” for “2018). siCaMKKβ”"}, "CBA/J mice [8]": {"tested_on": "CBA/J mice", "test": "Cisplatin-plus-furosemide-induced hearing loss: ABR threshold shifts", "details": "CDDP 2.5-4 mg/kg plus furosemide 200 mg/kg IP; measured on day 7 and on day 14 post treatment"}, "[9]": {"test": "Body weight and survival with CDDP treatment", "procedure": "There is no difference in auditory threshold shifts between CDDP 2.5-4 mg/kg with 55-60 dB shifts when measured on day 7 and on day 14 post treatment. […] This model was used to test the effect of AMPKα siRNA.\nBody weight was measured before treatment, on treatment days, and 7 and 14 d post treatment. […] Data are presented as means±SD. CDDP2 mg/kg: n=2, CDDP 2.5 mg/kg: n=5, CDDP 3 mg/kg: n=2, CDDP 4 mg/kg: n=3."}}}
{"compound": "siCaMKKβ: CaMKKβ siRNA (Thermo Fisher, #n437808); sense GAGCACAAAUAAUUGUUUUTT SEQ ID NO: 1; antisense AAAACAAUUAUUUGUGCUCTA SEQ ID NO: 2 (chemistry not given here)", "values": [{"measurement": "decrease of CaMKKβ immunolabeling in grayscale in OHCs compared to siControls", "setting": "CaMKKβ; 72 h after PSC delivery", "result": "about 90%"}, {"measurement": "decrease of CaMKKβ immunolabeling in grayscale in OHCs compared to siControls", "setting": "CaMKKβ; 72 h after intra-tympanic delivery onto the RWM", "result": "about 40%"}, {"measurement": "threshold shifts induced by exposure to 101-dB noise", "setting": "CBA/J mice [1]", "result": "significantly decreases"}, {"measurement": "101-dB-noise-increased DPOAE thresholds", "setting": "CBA/J mice [2]", "result": "significantly attenuates"}, {"measurement": "noise-induced OHC loss", "setting": "outer hair cells (OHCs) [3]", "result": "significantly reduced"}, {"measurement": "noise-induced loss of synapses (CtBP2/GluA2)", "setting": "IHC synapses", "result": "prevented"}, {"measurement": "KM-furosemide-induced auditory threshold shifts", "setting": "CBA/J mice [4]; siRNA pretreatment via PSC", "result": "completely prevented"}, {"measurement": "KM-furosemide-induced auditory threshold shifts", "setting": "CBA/J mice [4]; siRNA pretreatment via intra-tympanic delivery onto the RWM", "result": "significant reduction"}, {"measurement": "KM-furosemide-induced reduction of DPOAE (damage to OHC function)", "setting": "CBA/J mice [5]", "result": "completely prevented"}, {"measurement": "KM-furosemide-induced OHC loss", "setting": "outer hair cells (OHCs) [6]", "result": "completely prevents"}, {"measurement": "FM1-43 uptake into OHCs compared with siControl mice", "setting": "[7]", "result": "does not change"}]}
{"compound": "NC[C@H]1O[C@H](O[C@H]2[C@H](O)[C@@H](O[C@H]3O[C@H](CO)[C@@H](O)[C@H](N)[C@H]3O)[C@H](N)C[C@@H]2N)[C@H](O)[C@@H](O)[C@@H]1O", "note": "[KM, kanamycin, reference compound]", "values": [{"measurement": "hearing loss / auditory threshold shifts (in words)", "setting": "CBA/J mice [4]", "result": "does not induce hearing loss"}]}
{"compound": "[NH2][Pt]([NH2])([Cl])[Cl]", "note": "[CDDP, cisplatin]", "values": [{"measurement": "auditory threshold shifts", "setting": "CBA/J mice [8]", "result": "55-60 dB"}, {"measurement": "death", "setting": "[9]; 3 mg/kg CDDP treated group, day 8 after the treatment", "result": "One mouse of the 3 mg/kg CDDP treated group died"}, {"measurement": "changes in body weight", "setting": "[9]; CDDP at and above 3 mg/kg, day 7 post treatment vs beginning of the treatment", "result": "loss of body weight"}, {"measurement": "changes in body weight", "setting": "[9]; CDDP at doses below or equal 2.5 mg/kg", "result": "no significant changes"}]}
{"compound": "NS(=O)(=O)c1cc(C(=O)O)c(NCc2ccco2)cc1Cl", "note": "[furosemide, reference compound]", "values": [{"measurement": "hearing loss / auditory threshold shifts (in words)", "setting": "CBA/J mice [4]", "result": "does not induce hearing loss"}]}
